Test results reported in PubChem BioAssay (NCI).
Where “and” joins values, the source holds several entries; their conditions need not be identical. Identical values can stand only once.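 In this assay, cells in 96-well plates receive the compound at five concentrations for 48 hours. Endpoints are linearly interpolated between the surrounding concentrations. GI50 is the concentration that inhibits growth by half. TGI marks complete inhibition of growth.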

Tests used:
Experiment in all cases: NCI-60 cell line screen, 48 h
SF-295 CNS = test system: SF-295 CNS
SK-MEL-5 melanoma = test system: SK-MEL-5 melanoma
MDA-MB-231 breast = test system: MDA-MB-231 breast
MALME-3M melanoma = test system: MALME-3M melanoma
OVCAR-4 ovarian = test system: OVCAR-4 ovarian
SN12C renal = test system: SN12C renal
786-0 renal = test system: 786-0 renal
SK-MEL-28 melanoma = test system: SK-MEL-28 melanoma
HCT-15 colon = test system: HCT-15 colon
NCI-H522 lung = test system: NCI-H522 lung

| Compound | TGI (SF-295 CNS) | TGI (SK-MEL-5 melanoma) | TGI (MDA-MB-231 breast) | TGI (MALME-3M melanoma) | TGI (OVCAR-4 ovarian) | TGI (SN12C renal) | TGI (786-0 renal) | TGI (SK-MEL-28 melanoma) | TGI (HCT-15 colon) | TGI (NCI-H522 lung) | GI50 (SF-295 CNS) | GI50 (MALME-3M melanoma) | GI50 (SN12C renal) | GI50 (SK-MEL-28 melanoma) | GI50 (NCI-H522 lung) | GI50 (SK-MEL-5 melanoma) [µM] | GI50 (MDA-MB-231 breast) [µM] | GI50 (HCT-15 colon) [µM] |
| --- | --- | --- | --- | --- | --- | --- | --- | --- | --- | --- | --- | --- | --- | --- | --- | --- | --- | --- |
| Cc1noc(NC2=CC(=O)C(=O)c3ccccc32)c1C | > 100 µM | 3.75 µM | > 100 µM | 17.6 µM | > 100 µM | 3.7 µM | > 100 µM | > 100 µM | > 100 µM | 79.2 µM |  |  |  |  |  |  |  |  |
| CC(=O)OC1COC(Nc2nc(NCc3ccccc3)n(C)c(=O)c2N=O)C(OC(C)=O)C1OC(C)=O (stereo not given) | > 10 µM | > 10 µM | > 10 µM | > 10 µM | > 10 µM | > 10 µM | > 10 µM | > 10 µM | > 10 µM | > 10 µM |  |  |  |  |  |  |  |  |
| N#Cc1c(-c2ccccc2)c(N=Nc2ccc(Cl)cc2)c(=O)n2c1[nH]c1ccccc12 | > 100 µM | > 100 µM | > 100 µM | > 100 µM | 85.6 µM | > 100 µM | 73.2 µM | > 100 µM | > 100 µM | > 100 µM |  |  |  |  |  |  |  |  |
| O=CC12C3CCC1C2C(=O)C3 (stereo not given) | > 100 µM | > 100 µM | > 100 µM | > 100 µM | > 100 µM | > 100 µM | > 100 µM | > 100 µM | > 100 µM | > 100 µM |  |  |  |  |  |  |  |  |
| Cc1ccc2oc(=O)c(C(=O)Nc3nc(C45CC6CC(CC(C6)C4)C5)cs3)cc2c1 | > 100 µM | > 100 µM | > 100 µM | > 100 µM | > 100 µM | > 100 µM | > 100 µM | > 100 µM | > 100 µM | > 100 µM |  |  |  |  |  |  |  |  |
| COc1ccc(N2C=Nn3c(nc4sc5c(c4c3=O)CCCC5)C2)cc1 | 68 µM | > 100 µM | 40 µM | 78 µM | > 100 µM | > 100 µM | 20.7 µM | > 100 µM | > 100 µM | > 100 µM |  |  |  |  |  |  |  |  |
| COc1cc2c(=O)cnoc2cc1O | > 100 µM | > 100 µM | > 100 µM | > 100 µM | > 100 µM | > 100 µM | > 100 µM | > 100 µM | > 100 µM | > 100 µM |  |  |  |  |  |  |  |  |
| O=C(O)Cc1ccc2[nH]c(O)c(C3=Nc4ccccc4C3=O)c2c1 | > 100 µM | 55.6 µM | > 100 µM | > 100 µM | > 100 µM | > 100 µM | > 100 µM | > 100 µM | > 100 µM | > 100 µM |  |  |  |  |  |  |  |  |
| O=C(O)CC1NCc2cc3ccccc3nc21 (stereo not given) | > 100 µM | > 100 µM | > 100 µM | > 100 µM | > 100 µM | > 100 µM | > 100 µM | > 100 µM | > 100 µM | > 100 µM |  |  |  |  |  |  |  |  |
| CC1OC(OC2C(OC(=O)[C@]34CCC(C)(C)C[C@H]3C3=CC[C@@H]5[C@@]6(C)CC[C@H](OC7OC(C(=O)O)C(O)C(OC8OCC(O)C(O)C8O)C7O)C(C)(C)[C@@H]6CC[C@@]5(C)[C@]3(C)CC4)OCC(O)C2O)C(O)C(OC2OCC(O)C(O)C2O)C1OC1OCC(O)C(OC2OCC(O)C(O)C2O)C1O (stereo not given in full) | 18.9 µM and 30.2 µM | 29.6 µM and 35 µM | 14.2 µM and 12.9 µM | 25.7 µM and 91 µM | 21.6 µM and 37.6 µM | 7.2 µM and 21.6 µM | 25.7 µM and 43 µM | 15.9 µM and 30.8 µM | 32.2 µM and 42.4 µM | 7.93 µM and 25.9 µM | 5.98 µM and 15.4 µM | 10.6 µM and 28.6 µM | 2.85 µM and 8.35 µM | 5.5 µM and 16.3 µM | 2.53 µM and 12.3 µM |  |  |  |
| C=C1C(=O)O[C@@H]2C[C@]3(C)CC[C@]4(C)[C@H](CC[C@@H]5[C@@]6(C)CCC(=O)C(C)(C)[C@@H]6CC[C@]54C)[C@H]3[C@H]12 | 33.6 µM | 25.1 µM | 47.1 µM | 29.7 µM | 40.1 µM | 36.4 µM | 30.2 µM | 38.4 µM | 28.1 µM | 23.2 µM |  |  |  |  |  |  |  |  |
| O=C(O)/C(Cc1ccc([N+](=O)[O-])cc1)=N\O | > 100 µM | > 100 µM | > 100 µM | > 100 µM | > 100 µM | > 100 µM | > 100 µM | > 100 µM | > 100 µM | > 100 µM |  |  |  |  |  |  |  |  |
| O=[N+]([O-])c1ccc(C=NCC2CCCN3CCCCC23)cc1 (stereo not given) | > 100 µM | > 100 µM | > 100 µM | > 100 µM | > 100 µM | > 100 µM | 52.1 µM | > 100 µM | > 100 µM | > 100 µM |  |  |  |  |  |  |  |  |
| CCOC(=O)C(NC(=O)c1ccccc1)(N1CCOCC1)C(F)(F)F (stereo not given) | > 100 µM | > 100 µM | > 100 µM | > 100 µM | > 100 µM | > 100 µM | > 100 µM | > 100 µM | > 100 µM | > 100 µM |  |  |  |  |  |  |  |  |
| CCCCON1C[C@H](OC(C)=O)C(OC(C)=O)[C@H](OC(C)=O)C1 (stereo not given in full) | > 100 µM | > 100 µM | > 100 µM | > 100 µM | > 100 µM | > 100 µM | > 100 µM | > 100 µM | > 100 µM | > 100 µM |  |  |  |  |  |  |  |  |
| Nc1nn2c(nc(N)c3c(N)[nH]nc32)c1N=Nc1ccc(Br)cc1 | > 100 µM | > 100 µM | 1.87 µM | 18.4 µM | > 92.6 µM | 56.7 µM | > 95.3 µM | > 94.2 µM | > 100 µM | 76.9 µM |  |  |  |  |  |  |  |  |
| Cc1cn([C@@H]2O[C@H](CO[Si](C)(C)C(C)(C)C)[C@]3(O[C@H]3C(=O)NN)[C@H]2O[Si](C)(C)C(C)(C)C)c(=O)[nH]c1=O | 22.2 µM | 24 µM | 13.7 µM | 11.8 µM | 22.6 µM | 13.9 µM | 14.7 µM | 25.3 µM | 14.8 µM | 5.47 µM |  |  |  |  |  |  |  |  |
| Cc1ccc(/C=N/Nc2ccc3ccccc3n2)s1 | 38.4 µM | 30.7 µM | 65.9 µM | 41.2 µM | > 100 µM | 28.4 µM | 35.8 µM | 55.9 µM | > 100 µM | 77.8 µM |  |  |  |  |  |  |  |  |
| CC(=O)N=C1N(/C=C2\C(=O)Oc3ccccc3C2=O)C(=O)/C(=C/c2ccc(Cl)cc2Cl)N1C | > 100 µM | > 100 µM | > 100 µM | > 100 µM | > 100 µM | > 100 µM | > 100 µM | > 100 µM | > 100 µM | > 100 µM |  |  |  |  |  |  |  |  |
| CN(C)CCCn1nc(N)c2nc3cc(Cl)ccc3nc21 | > 100 µM | 41.3 µM | > 100 µM | > 100 µM | > 100 µM | > 100 µM | > 100 µM | 35.7 µM | > 100 µM | > 100 µM |  |  |  |  |  |  |  |  |
| Cc1ccc(/C(O)=C/c2nc3ccccc3s/c2=N/CS(=O)(=O)c2ccc(C)cc2)cc1 | > 10 µM | > 10 µM | > 10 µM | > 10 µM | > 10 µM | > 10 µM | > 10 µM | > 10 µM | > 10 µM | > 10 µM |  |  |  |  |  |  |  |  |
| CN(c1ccccc1Cl)S(=O)(=O)c1ccc([N+](=O)[O-])cc1 | > 100 µM | > 100 µM | > 100 µM | > 100 µM | > 100 µM | > 100 µM | > 100 µM | > 100 µM | > 100 µM | > 100 µM |  |  |  |  |  |  |  |  |
| O=C(N/N=C1/C(=O)c2c3ccccc3cc3cccc1c23)c1ccccc1 | 52.2 µM | > 63.2 µM | > 100 µM | 68.5 µM | 44.2 µM | > 100 µM | 43.1 µM | > 95.6 µM | > 100 µM | > 100 µM |  |  |  |  |  |  |  |  |
| CCN(CC)CCNC(=O)c1cn2c(ccc3sc4ccccc4c(=O)c32)n1 | 23.9 µM | 22.9 µM | 27.5 µM | 26.9 µM | 22.8 µM | 23.7 µM | 19.5 µM | 25.6 µM | 21.2 µM | 25.6 µM |  |  |  |  |  |  |  |  |
| CCCCCCCCCCC1OC([C@@H](O)CC[C@H](O)C2CC[C@@H](CCCCCCCC(O)CC3=CC(C)OC3=O)O2)CCC1O (stereo not given in full) | > 25 µM | 9.13 µM and > 10.5 µM | > 25 µM | > 25 µM | > 25 µM | > 25 µM | > 25 µM | > 25 µM | > 25 µM | > 25 µM | 4.31 µM |  |  | 5.34 µM |  | 1.81 | 5.88 | 7.58 |
| COc1ccc(OC)c(NS(=O)(=O)c2ccc3nc(C)n(NS(=O)(=O)c4cc(OC)ccc4OC)c(=O)c3c2)c1 | > 100 µM | > 100 µM | > 100 µM | > 100 µM | > 100 µM | > 100 µM | > 100 µM | > 100 µM | > 100 µM | > 100 µM |  |  |  |  |  |  |  |  |
| O=c1[nH]nc(Cc2ccccc2)n1CCO | > 100 µM | > 100 µM | > 100 µM | > 100 µM | > 100 µM | > 100 µM | > 100 µM | > 100 µM | > 100 µM | > 100 µM |  |  |  |  |  |  |  |  |
| CCCCCCCCCCCCOCCCOP(=O)([O-])OCC[N+](C)(C)C | > 100 µM | > 71.3 µM | 40.1 µM | > 84.4 µM | > 100 µM | > 76.7 µM | 37.4 µM | > 92.7 µM | > 73.3 µM | 68.3 µM |  |  |  |  |  |  |  |  |
| Cc1c2c(OCCN3CCCCC3)nn(C)c(=O)c2c(C)n1-c1ccccc1 | 47.9 µM | 32.1 µM | > 100 µM | 35.3 µM | > 100 µM | > 100 µM | 36.7 µM | 84.7 µM | > 100 µM | 84.1 µM |  |  |  |  |  |  |  |  |
